Experimental findings from ChEMBL document CHEMBL3259640 (J Med Chem, 2014) are described below.

Structures are written as SMILES. In brackets after ≈: the same amount, converted by molar mass.

The test system of one series is K562. Description: Antiproliferative activity against human K562 cells assessed as cell viability after 96 hrs by CellTiter96 assay. In kind it is functional, cell-based. Particulars: K562, 96 h.
In another series the test system is MDA-MB-231. Description: Antiproliferative activity against human MDA-MB-231 cells assessed as cell viability after 96 hrs by CellTiter96 assay. Type of series: functional, cell-based. Particulars: MDA-MB-231, 96 h.
Another series deals with HeLa. Description: Antiproliferative activity against human HeLa cells assessed as cell viability after 96 hrs by CellTiter96 assay. In kind it is functional, cell-based.
The subject of the next series is MDA-MB-468. Description: Antiproliferative activity against human MDA-MB-468 cells assessed as cell viability after 96 hrs by CellTiter96 assay. Particulars: MDA-MB-468, 96 h. In kind it is functional, cell-based.
Series [1] is described as follows: Solubility of the compound in phosphate buffered saline containing 1% DMSO at pH 7.4 after 2 hrs by HPLC analysis. Type of series: physicochemical.

Turning to `COc1ccc(Oc2cc(C)c(-c3csc(NC(=O)c4ccncc4)n3)c(C)c2)cc1`, the half-inhibitory concentration (IC50) in the series on K562 stood at 0.0349 µM; with MDA-MB-231 it was 0.032 µM; in the series on HeLa, 0.0486 µM; in the series on MDA-MB-468, 0.037 µM.

In the case of `Cc1cc(Oc2ccc3c(c2)OCO3)cc(C)c1-c1csc(NC(=O)c2ccncc2)n1`, the IC50 with K562 was 0.0457 µM; with MDA-MB-231, 0.068 µM; with HeLa, 0.106 µM; with MDA-MB-468, 0.128 µM.

For `Cc1cc(C)c(-c2csc(NC(=O)Cc3ccncc3)n2)c(C)c1`, the IC50 in the series with K562 came to 0.38 µM; in the series on MDA-MB-231, 0.31 µM; in the series on HeLa it was 0.62 µM; in the series on MDA-MB-468, 0.3 µM.

In series [1], `Cc1cc(C)c(-c2csc(NC(=O)c3ccncc3)n2)c(C)c1` yielded a kinetic solubility at 2 h of 3.33 µM (≈ 1.08 µg/mL).

Take `Cc1cc(C)c(-c2csc(NC(=O)c3ccccc3)n2)c(C)c1`: the IC50 was found to be 3.2 µM in the series with K562, 3.2 µM in the series with MDA-MB-231, 3.6 µM in the series with HeLa and 2.2 µM in the series with MDA-MB-468.

The term IC50 denotes the midpoint of a concentration-inhibition curve. In general, kinetic solubility refers to solubility judged after dilution from a stock solution rather than from solid.
